The source of these data is US4724237A, “2-substituted-aminomethyl-1,4-benzodiazepines” (Merck & Co., Inc., priority 1984, dated 1988).

The subject of one assay is kappa receptor. Particulars: D. Roemer et al., Nature, 298, 759 (1982); cited from earlier work.
In the next assay the test system is rats. The conditions noted are these: J. E. Morley et al.; cited from earlier work.
For assay [1] the following is noted: in words; cited from earlier work.
In the next assay the test system is CCK-receptor. Particulars: structure-function studies, in words; cited from earlier work.
A further assay deals with T1, CCK receptor (pancreas) (Rattus norvegicus, UniProt P30551).
T1 construct: The whole pancreas of a male Sprague-Dawley rat (200-350 g); from tissue; host or cells: whole pancreas of male Sprague-Dawley rat, washed membrane homogenate
T1 sequence (P30551 1-444): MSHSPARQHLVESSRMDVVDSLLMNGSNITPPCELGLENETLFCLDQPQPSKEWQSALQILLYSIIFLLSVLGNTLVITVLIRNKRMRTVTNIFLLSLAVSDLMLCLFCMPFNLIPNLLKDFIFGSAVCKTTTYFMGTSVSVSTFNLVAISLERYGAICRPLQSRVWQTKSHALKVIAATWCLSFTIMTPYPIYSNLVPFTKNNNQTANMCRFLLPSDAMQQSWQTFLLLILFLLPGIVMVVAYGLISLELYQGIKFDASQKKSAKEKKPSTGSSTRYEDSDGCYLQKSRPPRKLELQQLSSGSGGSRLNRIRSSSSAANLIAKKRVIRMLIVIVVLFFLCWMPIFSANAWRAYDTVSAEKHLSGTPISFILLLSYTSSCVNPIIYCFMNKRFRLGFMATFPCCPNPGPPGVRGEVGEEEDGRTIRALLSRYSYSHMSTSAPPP
In words: CCK receptor binding (pancreas) method, inhibition of ^125 I-CCK-33 binding. Details: species or system male Sprague-Dawley rat. Particulars: for effect on the ^125 I-CCK receptor binding assay: additional protease inhibitors in the assay buffer. The source says: (§1) Screening of the novel compounds according to the present invention to determine biological activity and obtain an IC50 value for them, in order to identify significant CCK-antagonism, may be accomplished using an ^125 I-CCK receptor binding assay and in vitro isolated tissue preparations. These tests involve the following:
CCK receptor binding (pancreas) method
CCK-33 was radiolabeled with ^125 I-Bolton Hunter reagent (2000 Ci/mmole), as described by Sankara et al. (J. Biol. Chem., 254, 9349-9351, 1979).
The whole pancreas of a male Sprague-Dawley rat (200-350 g), which had been sacrificed by decapitation, was dissected free of fat tissue and homogenized in 20 volumes of ice-cold 50 mM Tris HCl (pH 7.7 at 25° C.) with a Brinkmann Polytron PT-10. The homogenates were centrifuged at 48,000 g for 10 minutes, then the resulting pellets were resuspended in Tris Buffer, centrifuged as above, and resuspended in 200 volumes of binding assay buffer (50 mM Tris HCl, pH 7.7 at 25° C., 5 mM dithiothreitol, 0.1 mM bacitracin, 1.2 mM phenylmethane sulfonyl fluoride and 0.5 mM o-phenanthroline).
All assays were run in duplicate or triplicate, and the reaction mixtures were incubated at 37° C. for 30 minutes and centrifuged in a Beckman Microfuge (4 minutes) immediately after adding 1 ml of ice-cold incubation buffer. The supernatant was aspirated and discarded, and the pellets were counted with a Beckman Gamma 5000.

The target in another assay is T2, CCK receptor (brain) (Cavia porcellus, UniProt H0VZC5).
T2 construct: The cerebral cortex was dissected and used as a receptor source; from tissue; host or cells: cerebral cortex of male Hartley guinea pig, membrane homogenate
T2 sequence (H0VZC5 entry or part of it): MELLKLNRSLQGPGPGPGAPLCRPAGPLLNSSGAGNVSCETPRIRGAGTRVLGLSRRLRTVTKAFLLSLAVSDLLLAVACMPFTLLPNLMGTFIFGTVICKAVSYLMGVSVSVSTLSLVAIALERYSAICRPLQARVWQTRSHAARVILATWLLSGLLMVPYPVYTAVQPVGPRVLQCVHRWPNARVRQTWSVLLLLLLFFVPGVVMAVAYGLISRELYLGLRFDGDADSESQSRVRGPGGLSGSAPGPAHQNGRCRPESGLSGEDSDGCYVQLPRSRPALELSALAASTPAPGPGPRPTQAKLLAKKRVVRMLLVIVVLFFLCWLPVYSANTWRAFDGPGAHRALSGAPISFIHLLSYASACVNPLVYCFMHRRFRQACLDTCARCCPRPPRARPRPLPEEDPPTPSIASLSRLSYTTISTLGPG
In words: CCK receptor binding (brain) method, inhibition of ^125 I-CCK-33 binding. Set-up: species or system male Hartley guinea pig. As for the experimental part:
as §1
CCK receptor binding (brain) method
CCK-33 was radiolabeled and the binding was performed according to the description for the pancreas method, with modifications according to Saito et al., J. Neurochem., 37, 483-490, 1981.
Male Hartley guinea pigs (300-500 g) were sacrificed by decapitation, and the brains were removed and placed in ice-cold 50 mM Tris HCl (Trizma-7.4)[pH 7.4 at 25° C.]. The cerebral cortex was dissected and used as a receptor source and each gram of fresh guinea pig brain tissue was homogenized in 10 ml of Tris/Trizma buffer with a Brinkman polytron PT-10. The homogenates were centrifuged at 42,000 g for 15 minutes, then the resulting pellets were resuspended in 80 volumes of binding assay buffer (10 mM N-2-hydroxy-ethyl-piperazine-N'-2-ethanesulfonic acid (HEPES), 5 mM MgCl2, 1 mM ethylene glycol-bis-(β-amino-ethyl-ether-N,N'-tetraacetic acid (EGTA), 0.4% BSA and 0.25 mg/ml bacitracin, pH 6.5).
The remainder of the binding assay method was as described for the pancreas method, except that the reaction mixtures were incubated at 25° C. for 2 hours before centrifugation.

[2] abbreviates: concentration required to cause inhibition of 50% of the ^125 I-CCK binding, pancreas, 37° C., 30 minutes.

Structures can show the parent of a compound that is named as a salt. Where two headings read alike, the source gives them in different places. Square brackets hold non-standard residues; d marks the D form. Peptide text beside a SMILES is read from it. * marks the point of attachment. sY = N[C@@H](Cc1ccc(OS(=O)(=O)O)cc1)C(=O)O; Cbz = O=C(OCc1ccccc1)*; Boc = CC(C)(C)OC(=O)*

As for `CN1c2ccccc2C(c2ccccc2F)=NCC1CNC(=O)c1ccsc1` (stereo not drawn), the “opiate agonism, selectivity for the kappa receptor” value in the assay on kappa receptor is reported as “opiate-agonist with selectivity for the kappa receptor”. The food intake result in the assay on rats is listed as “increase food intake in rats”.
For `CN1c2ccccc2C(c2ccccc2F)=NCC1CNC(=O)c1ccsc1` (single isomer, unassigned; (-)) [(-)-enantiomer], in assay [1], the analgesic activity result is “preferred for high analgesic activity”.
`CSCC[C@H](NC(=O)OC(C)(C)C)C(=O)N[C@@H](CC(=O)O)C(=O)N[C@@H](Cc1ccccc1)C(N)=O` [Boc-Met-Asp-Phe-NH2] (Boc-Met-Asp-Phe-NH2): the CCK antagonism entry in the assay on CCK-receptor was “can function as CCK antagonists”.
Turning to `CSCC[C@H](NC(=O)[C@H](Cc1ccc(OS(=O)(=O)O)cc1)NC(=O)OCc1ccccc1)C(=O)NCC(=O)N[C@@H](Cc1c[nH]c2ccccc12)C(=O)N[C@@H](CCSC)C(=O)N[C@@H](CC(=O)O)C(N)=O` [Cbz-Tyr(SO3 H)-Met-Gly-Trp-Met-Asp-NH2] (Cbz-[sY]MGWMD-NH2), the CCK antagonism result with CCK-receptor is “can function as CCK antagonists”.
As to `CN1c2ccccc2C(c2ccccc2F)=NCC1CNC(=O)c1cc2ccccc2[nH]1` (stereo not drawn) [Example 1, 1-methyl-2-(2'-indolecarbonyl)aminomethyl-5-(2'-fluorophenyl)-2,3-dihydro-1H-1,4,-benzodiazepine], the IC50 (commonly the concentration at which inhibition is half-maximal) on CCK receptor (pancreas) (setting [2]) stood at 0.16 µM; on CCK receptor (brain) (read-out: IC50 CCK, Brain), 14 µM.
For `CN1c2ccccc2C(c2ccccc2F)=NCC1CNC(=O)Cc1cccc2sccc12` (stereo not drawn) [Example 2, 1-methyl-2-(4-thianaphthenemethylcarbonyl)aminomethyl-5-(2'-fluorophenyl)-2,3-dihydro-1H-1,4-benzodiazepine], the IC50 was 0.45 µM at CCK receptor (pancreas) (setting [2]) and 23 µM on CCK receptor (brain).
In the case of `CN1c2ccccc2C(c2ccccc2F)=NCC1CNC(=O)[C@@H](O)c1ccccc1` (stereo partly drawn) [Example 3, 1-methyl-2-(2-L-hydroxy-2-phenylacetyl)aminomethyl-5-(2'-fluorophenyl)-2,3-dihydro-1H-1,4-benzodiazepine], the IC50 is 0.6 µM at CCK receptor (pancreas) and ~100 µM on CCK receptor (brain) (read-out: IC50 CCK, Brain).
The corresponding values for `CN1c2ccccc2C(c2ccccc2F)=NCC1CNC(=O)Cc1c[nH]c2ccccc12` (stereo not drawn) [Example 4, 1-methyl-2-(1H-indol-3-yl)methylcarbonylaminomethyl-5-(2'-fluorophenyl)-2,3-dihydro-1H-1,4-benzodiazepine hydrate] are 1 µM and 56 µM.
With `COC(=O)[C@H](Cc1ccccc1)NCC1CN=C(c2ccccc2F)c2ccccc2N1C` (stereo partly drawn) [Example 5, 1-methyl-2-[1-(S)-1-methoxycarbonyl-2-phenylethylamino]methyl-5-(2'-fluorophenyl)-2,3-dihydro-1H-1,4-benzodiazepine], the half-inhibitory concentration (IC50) at CCK receptor (pancreas) is 1.6 µM; at CCK receptor (brain) (read-out: IC50 CCK, Brain), ~100 µM.
Turning to `CN1c2ccccc2C(c2ccccc2F)=NCC1CNc1cccc(C(F)(F)F)c1` (stereo not drawn) [Example 6, 1-methyl-2-(3'-trifluoromethylphenyl)aminomethyl-5-(2'-fluorophenyl)-2,3-dihydro-1H-1,4-benzodiazepine], the half-inhibitory concentration (IC50) is 2.2 µM on CCK receptor (pancreas) and ~100 µM at CCK receptor (brain) (read-out: IC50 CCK, Brain).
With `CN1c2ccccc2C(c2ccccc2F)=NCC1CNC(=O)[C@H](Cc1c[nH]c2ccccc12)NC(=O)OC(C)(C)C` (stereo partly drawn) [Example 7, 1-methyl-2-[2-((1,1-dimethylethoxy)carbonyl)amino-3-(1H-indol-3-yl)propanoyl]aminomethyl-5-(2'-fluorophenyl)-2,3-dihydro-1H-1,4-benzodiazepine], the concentration for half-maximal inhibition (IC50) was 4.1 µM at CCK receptor (pancreas) and 38.6 µM at CCK receptor (brain).
In the case of `CC(C)COC(=O)NCC1CN=C(c2ccccc2F)c2ccccc2N1C` (stereo not drawn) [Example 8, 1-methyl-2-[(2-methylpropoxy)carbonyl]aminomethyl-5-(2'-fluorophenyl)-2,3-dihydro-1H-1,4-benzodiazepine], the IC50 on CCK receptor (pancreas) (setting [2]) is 5.8 µM; at CCK receptor (brain) (read-out: IC50 CCK, Brain) it was ~100 µM.
As to `CN1c2ccccc2C(c2ccccc2F)=NCC1CNC(=O)[C@@H](N)Cc1c[nH]c2ccccc12` (stereo partly drawn) [Example 9, 1-methyl-2-[2-amino-3-(1H-indol-3-yl)propanoyl]aminomethyl-5-(2'-fluorophenyl)-2,3-dihydro-1H-1,4-benzodiazepine dihydrochloride sesquihydrate], the IC50 is 11.6 µM on CCK receptor (pancreas) and ~100 µM at CCK receptor (brain).
For `COC(C(=O)NCC1CN=C(c2ccccc2F)c2ccccc2N1C)(c1ccccc1)C(F)(F)F` (stereo not drawn) [Example 10, 1-methyl-2-(2-methoxy-2-trifluoromethyl-2-phenylacetyl)aminomethyl-5-(2'-fluorophenyl)-2,3-dihydro-1H-1,4-benzodiazepine], the values for the IC50 on CCK receptor (pancreas) (setting [2]) and on CCK receptor (brain) were 13 µM and ~100 µM, respectively.
`CC(=O)NCSCC(NC(=O)OC(C)(C)C)C(=O)NCC1CN=C(c2ccccc2F)c2ccccc2N1C` [Example 11, 1-methyl-2-[2(S)-((1,1-dimethylethoxy)carbonyl)amino-3-acetamidomethylmercaptopropanoyl]aminomethyl-5-(2'-fluorophenyl)-2,3-dihydro-1H-1,4-benzodiazepine hemihydrate] registered an IC50 at CCK receptor (pancreas) of 24 µM.
In the case of `CN1c2ccccc2C(c2ccccc2F)=NCC1CNC(=O)CCC(=O)OCc1ccccc1` (stereo not drawn) [Example 12, 1-methy-2-benzoylsuccinoylaminomethyl-5-(2'-fluorophenyl)-2,3-dihydro-1H-1,4-benzodiazepine], the 50% inhibitory concentration (IC50) at CCK receptor (pancreas) (setting [2]) worked out at 45 µM; at CCK receptor (brain) it was 55 µM.
Turning to `CC(=O)NCSCC(=O)NCC1CN=C(c2ccccc2F)c2ccccc2N1C` (stereo not drawn) [Example 13, 1-methyl-2-(acetamidomethylmercaptoacetyl)aminomethyl-5-(2'-fluorophenyl-2,3-dihydro-1H-1,4-benzodiazepine hydrate], the half-inhibitory concentration (IC50) at CCK receptor (pancreas) (setting [2]) is 100 µM; at CCK receptor (brain) (read-out: IC50 CCK, Brain), ~100 µM.
In the case of `CN1c2ccccc2C(c2ccccc2F)NCC1CNC(=O)c1ccsc1` (stereo not drawn) [Example 14, 1-methyl-2-(3-thiophenecarbonyl)aminomethyl-5-(2'-fluorophenyl)-2,3,4,5-tetrahydro-1H-1,4-benzodiazepine], the half-inhibitory concentration (IC50) on CCK receptor (pancreas) (setting [2]) is 4.8 µM; on CCK receptor (brain) (read-out: IC50 CCK, Brain), ~100 µM.
With `CSCC[C@H](N)C(=O)N[C@@H](CC(=O)O)C(=O)N[C@@H](Cc1ccccc1)C(N)=O` [Met-Asp-Phe-NH2] (H-Met-Asp-Phe-NH2), in the assay on CCK-receptor, the CCK antagonism result is listed as “can function as CCK antagonists”.
In the case of `CCCC(=O)Nc1nc2c(ncn2[C@@H]2O[C@@H]3COP(=O)(O)O[C@H]3[C@H]2OC(=O)CCC)c(=O)[nH]1` [dibutyryl cyclic GMP], the CCK antagonism entry in the assay with CCK-receptor is reported as “most potent”.
For the compound `c1cnc2c(c1)ccc1cccnc12` [o-phenanthroline, reference compound], on CCK receptor (pancreas), the “effect on the ^125 I-CCK receptor binding assay” value is given as “no effect”.
As to `O=S(=O)(F)Cc1ccccc1` [phenyl-methane sulfonyl fluoride, reference compound], the “effect on the ^125 I-CCK receptor binding assay” value on CCK receptor (pancreas) is on record as “no effect”.
